Target: T1, human PPARα (Homo sapiens, UniProt Q07869)
T1 construct: host or cells: proprietary non-human mammalian cells
T1 sequence (Q07869 1-468): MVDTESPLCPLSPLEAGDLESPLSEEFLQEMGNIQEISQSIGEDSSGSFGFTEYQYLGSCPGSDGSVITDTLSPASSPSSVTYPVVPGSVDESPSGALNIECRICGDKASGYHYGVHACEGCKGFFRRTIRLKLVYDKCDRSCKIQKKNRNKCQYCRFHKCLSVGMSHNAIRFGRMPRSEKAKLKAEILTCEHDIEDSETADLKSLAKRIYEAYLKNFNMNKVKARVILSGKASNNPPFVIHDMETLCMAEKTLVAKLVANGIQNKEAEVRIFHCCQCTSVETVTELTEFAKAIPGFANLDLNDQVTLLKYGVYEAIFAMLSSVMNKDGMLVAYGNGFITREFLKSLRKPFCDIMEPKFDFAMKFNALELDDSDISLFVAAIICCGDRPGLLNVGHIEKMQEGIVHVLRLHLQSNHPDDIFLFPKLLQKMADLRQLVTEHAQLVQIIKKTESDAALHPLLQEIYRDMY
Experiment: Human PPARα Reporter Assay (luciferase, Indigo Biosciences)
Format: cell-based
Conditions: antagonism; luciferase reporter cells, overnight incubation; read-out: PPARα IC50
Experimental: Human PPARα Reporter Assay
The screening of test compounds for agonist or antagonist activities against human PPARα receptors was performed using a commercial kit, Human PPARα Reporter Assay System (Indigo Biosciences, Cat. #IB00111).
This nuclear receptor assay system utilizes proprietary non-human mammalian cells engineered to provide constitutive, high-level expression of Human PPARα. Because these cells incorporate a PPARα-responsive luciferase reporter gene, quantifying expressed luciferase activity provides a sensitive surrogate measure of PPARα activity in the treated cells. The primary application of this reporter assay system is in the screening of test samples to quantify any functional activity, either agonist or antagonist, that they may exert against human PPARα.
Briefly, reporter cells are dispensed into wells of the assay plate and then immediately dosed with test compounds. Following an overnight incubation, the treatment media is discarded and Luciferase Detection Reagent (LDR) is added. The intensity of light emission from the ensuing luciferase reaction provides a sensitive measure that is directly proportional to the relative level of PPARα activation in the reporter cells.

SMILES: CC(C)(Oc1ccc(CCCC2=NN(Cc3ccc(C(F)(F)F)cc3)C(=O)C23CCCC3)cc1)C(=O)O [Example 34, 2-methyl-2-(4-(3-(4-oxo-3-(4-(trifluoromethyl)benzyl)-2,3-diazaspiro[4,4]non-1-en-1-yl)propyl)phenoxy)propanoic acid]
- IC50: 960 nM

SMILES: CC(C)(Oc1ccc(CCCC2=NN(Cc3ccc(C4=CCCCC4)cc3)C(=O)C2(C)C)cc1)C(=O)O [Example 15, 2-(4-(3-(4,4-dimethyl-5-oxo-1-((2′,3′,4′,5′-tetrahydro-[1,1′-biphenyl]-4-yl)methyl)-4,5-dihydro-1H-pyrazol-3-yl)propyl)phenoxy)-2-methylpropanoic acid]
- IC50: 130 nM

SMILES: CC(C)(Oc1ccc(CCCC2=NN(c3ccc(C(F)(F)F)cc3)C(=O)C2(C)C)cc1)C(=O)NS(=O)(=O)c1ccccc1 [Example 22, 2-(4-(3-(4,4-dimethyl-5-oxo-1-(4-(trifluoromethyl)phenyl)-4,5-dihydro-1H-pyrazol-3-yl)propyl)phenoxy)-2-methyl-N-(phenylsulfonyl)propanamide]
- IC50: 0.9 nM

SMILES: CC1(C)C(=O)N(c2ccc(C(F)(F)F)cc2)N=C1CCCc1ccc(OC(C)(C(=O)O)c2ccccc2)cc1 (single isomer, unassigned) [53-enantiomer#2, 2-(4-(3-(4,4-dimethyl-5-oxo-1-(4-(trifluoromethyl)phenyl)-4,5-dihydro-1H-pyrazol-3-yl)propyl)phenoxy)-2-phenylpropanoic acid]
- IC50: 2.1 nM

SMILES: CC(C)(Oc1ccc(CCCC2=NN(Cc3ccc(C(C)(C)C)cc3)C(=O)C2(C)C)cc1)C(=O)NCc1ccccc1 [Example 3, N-benzyl-2-(4-(3-(1-(4-(tert-butyl)benzyl)-4,4-dimethyl-5-oxo-4,5-dihydro-1H-pyrazol-3-yl)propyl)phenoxy)-2-methylpropanamide]
- IC50: 160 nM

SMILES: CC(C)(Oc1ccc(CCCC2=NN(c3ccc(C(F)(F)F)cc3)C(=O)C23CCCC3)cc1)C(=O)NS(=O)(=O)c1ccccc1 [Example 25, 2-methyl-2-(4-(3-(4-oxo-3-(4-(trifluoromethyl)phenyl)-2,3-diazaspiro[4,4]non-1-en-1-yl)propyl)phenoxy)-N-(phenylsulfonyl)propanamide]
- IC50: 1 nM

SMILES: CC1(C)C(=O)N(c2ccc(C(F)(F)F)cc2)N=C1CCCc1ccc(OCC(=O)O)cc1 [Example 49, 2-(4-(3-(4,4-dimethyl-5-oxo-1-(4-(trifluoromethyl)phenyl)-4,5-dihydro-1H-pyrazol-3-yl)propyl)phenoxy)acetic acid]
- IC50: 54 nM

SMILES: CC(C)(Oc1ccc(CCCC2=NN(Cc3ccc(Br)cc3)C(=O)C2(C)C)cc1)C(=O)O [Example 13, 2-(4-(3-(1-(4-bromobenzyl)-4,4-dimethyl-5-oxo-4,5-dihydro-1H-pyrazol-3-yl)propyl)phenoxy)-2-methylpropanoic acid]
- IC50: 360 nM

SMILES: CCCC1(CCC)C(=O)N(c2ccc(C(F)(F)F)cc2)N=C1CCCc1ccc(OC(C)(C)C(=O)O)cc1 [Example 41, 2-methyl-2-(4-(3-(5-oxo-4,4-dipropyl-1-(4-(trifluoromethyl)phenyl)-4,5-dihydro-1H-pyrazol-3-yl)propyl)phenoxy)propanoic acid]
- IC50: 15000 nM

SMILES: CC(C)(CNC(=O)c1ccccc1)Oc1ccc(CCCC2=NN(c3ccc(C(F)(F)F)cc3)C(=O)C23CCCC3)cc1 [Example 47, N-(2-methyl-2-(4-(3-(4-oxo-3-(4-(trifluoromethyl)phenyl)-2,3-diazaspiro[4,4]non-1-en-1-yl)propyl)phenoxy)propyl)benzamide]
- IC50: 580 nM

SMILES: CC(C)(Oc1ccc(CCCC2=NN(Cc3ccc(C(C)(C)C)cc3)C(=O)C2(C)C)cc1)C(=O)NCC1CCCCC1 [Example 6, 2-(4-(3-(1-(4-(tert-butyl)benzyl)-4,4-dimethyl-5-oxo-4,5-dihydro-1H-pyrazol-3-yl)propyl)phenoxy)-N-(cyclohexylmethyl)-2-methylpropanamide]
- IC50: 420 nM

SMILES: CC(C)(Oc1ccc(CCCC2=NN(Cc3ccc(-c4ccccc4)cc3)C(=O)C2(C)C)cc1)C(=O)O [Example 14, 2-(4-(3-(1-([1,1′-biphenyl]-4-ylmethyl)-4,4-dimethyl-5-oxo-4,5-dihydro-1H-pyrazol-3-yl)propyl)phenoxy)-2-methylpropanoic acid]
- IC50: 260 nM

SMILES: CC(C)(Oc1ccc(CCCC2=NN(Cc3ccc(C4CCCCC4)cc3)C(=O)C2(C)C)cc1)C(=O)O [Example 17, 2-(4-(3-(1-(4-cyclohexylbenzyl)-4,4-dimethyl-5-oxo-4,5-dihydro-1H-pyrazol-3-yl)propyl)phenoxy)-2-methylpropanoic acid]
- IC50: 140 nM

SMILES: Cc1ccc(N2N=C(CCCc3ccc(OC(C)(C)C(=O)NCC(F)(F)F)cc3)C3(CCCC3)C2=O)cc1C [Example 33, 2-(4-(3-(3-(3,4-dimethylphenyl)-4-oxo-2,3-diazaspiro[4,4]non-1-en-1-yl)propyl)phenoxy)-2-methyl-N-(2,2,2-trifluoroethyl)propanamide]
- IC50: 500 nM

SMILES: CCCC1(CCC)C(=O)N(c2cccc(C(F)(F)F)c2)N=C1CCCc1ccc(OC(C)(C)C(=O)O)cc1 [Example 42, 2-methyl-2-(4-(3-(5-oxo-4,4-dipropyl-1-(3-(trifluoromethyl)phenyl)-4,5-dihydro-1H-pyrazol-3-yl)propyl)phenoxy)propanoic acid]
- IC50: 34000 nM

SMILES: CC1(C)C(=O)N(c2ccc(C(F)(F)F)cc2)N=C1CCCc1ccc(OC(C)(C)C(O)C(F)(F)F)cc1 (stereo not drawn) [Example 43, 4,4-dimethyl-3-(3-(4-((4,4,4-trifluoro-3-hydroxy-2-methylbutan-2-yl)oxy)phenyl)propyl)-1-(4-(trifluoromethyl)phenyl)-1H-pyrazol-5(4H)-one]
- IC50: 1200 nM

SMILES: CC(C)c1ccc(CN2N=C(CCCc3ccc(OC(C)(C)C(=O)O)cc3)C(C)(C)C2=O)cc1 [Example 12, 2-(4-(3-(1-(4-isopropylbenzyl)-4,4-dimethyl-5-oxo-4,5-dihydro-1H-pyrazol-3-yl)propyl)phenoxy)-2-methylpropanoic acid]
- IC50: 22 nM

SMILES: CC(C)(Oc1ccc(CCCC2=NN(Cc3cccc(C(F)(F)F)c3)C(=O)C2(C)C)cc1)C(=O)O [Example 7, 2-(4-(3-(4,4-dimethyl-5-oxo-1-(3-(trifluoromethyl)benzyl)-4,5-dihydro-1H-pyrazol-3-yl)propyl)phenoxy)-2-methylpropanoic acid]
- IC50: 900 nM

SMILES: CC(C)(Oc1ccc(CCCC2=NN(Cc3ccc(C(C)(C)C)cc3)C(=O)C2(C)C)cc1)C(=O)NCc1ccncc1 [Example 5, 2-(4-(3-(1-(4-(tert-butyl)benzyl)-4,4-dimethyl-5-oxo-4,5-dihydro-1H-pyrazol-3-yl)propyl)phenoxy)-2-methyl-N-(pyridin-4-ylmethyl)propanamide]
- IC50: 280 nM

SMILES: CC(C)(Oc1ccc(CCCC2=NN(CCc3ccccc3)C(=O)C2(C)C)cc1)C(=O)O [Example 9, 2-(4-(3-(4,4-dimethyl-5-oxo-1-phenethyl-4,5-dihydro-H-pyrazol-3-yl)propyl)phenoxy)-2-methylpropanoic acid]
- IC50: 1000 nM

SMILES: CC(C)(Oc1ccc(CCCC2=NN(c3ccc4ccccc4c3)C(=O)C23CCCC3)cc1)C(=O)O [Example 37, 2-methyl-2-(4-(3-(3-(naphthalen-2-yl)-4-oxo-2,3-diazaspiro[4,4]non-1-en-1-yl)propyl)phenoxy)propanoic acid]
- IC50: 2.8 nM
